One data set relates to Anas platyrhynchos. The settings on record: oral, mortality.
A further data set relates to Apis mellifera. To be noted: acute; duration: 48 hours; oral; unspecified; mortality.
The subject of a further data set is Bibionidae. To be noted: chronic/long-term; duration: 28 days.
The test system of a further data set is Colinus virginianus. The settings on record: acute, oral, mortality.
A further data set relates to Daphnia magna. The settings on record: chronic/long-term; duration: 21 days.
In the next data set the test system is Lepomis macrochirus. To be noted: acute; duration: 96 hours; mortality.
The test system of the next data set is Mus musculus. To be noted: chronic; duration: 18 months; histopathology: nonneoplastic.
Another data set concerns Oncorhynchus mykiss. To be noted: chronic/long-term; duration: 28 days; growth.
The test system of a further data set is Tagia sp. To be noted: acute; duration: 14 days; mortality.
The subject of a further data set is Aphidius rhopalosiphi. As to the kind of experiment: LR50; higher = less toxic. To be noted: not reported; mortality.

For `O=C(NC(=O)c1c(F)cccc1F)Nc1cc(Cl)c(F)c(Cl)c1F` [Teflubenzuron], the LD50 with Anas platyrhynchos (acute, unspecified) was more than 2000 mg/kg-day; in the data set with Anas platyrhynchos (short-term, feed), more than 1210 mg/kg-day; in the data set with Apis mellifera, more than 72 µg/piece; in the data set on Colinus virginianus (diet) it was more than 1010 mg/kg-day; with Colinus virginianus it was more than 2250 mg/kg-day; with Rattus norvegicus (acute, oral, mortality), more than 5000 mg/kg-day. The NOEC in the data set on Bibionidae was determined as 0.05 mg/kg; with Daphnia magna, 6.2e-05 mg/L; in the data set on Oncorhynchus mykiss, 0.0186 mg/L. Also, the LC50 in the data set with Lepomis macrochirus was more than 6.5 ng/mL; in the data set with Tagia sp., more than 1000 mg/kg. Also, the LOAEL in the data set on Mus musculus came to 2.1 mg/kg-day. For the same molecule, the no observed adverse effect level (NOAEL) came out at 40 mg/kg-day in the data set on Rattus norvegicus (chronic) and 8 mg/kg-day in the data set with Rattus norvegicus (subchronic, duration: 90 days, oral, clinical chemistry). The same molecule had an LR50 in the data set with Aphidius rhopalosiphi of more than 180 g/ha.
